# Values of other authors in patent publication US20200155636A1, “Medicament and Beverage for Improving Joint and Bone Diseases” (priority 2017, published 2020).
# Conditions: oral application
substance,measurement,setting,value
hyaluronic acid,stability against gastric acid,,survives the gastric acid
same,absorption,small intestine,absorbed in the small intestine
